Test results: patent US10961238B2, “Modulators of hedgehog (Hh) signaling pathway” (E-THERAPEUTICS PLC, priority 2016, dated 2021)

system: C3H10T1/2 cells; experiment: C3H assay: differentiation of C3H10T1/2 cells by mSHH, measurement of alkaline phosphatase; type: cell-based, mouse; conditions: Mus musculus, C3H 10T1/2; C3H10T1/2 cells stimulated with mSHH for 72 hours; alkaline phosphatase activity; read-out: IC50 Ranges

Compound	IC50 [nM]
CC(C)(C)OC(=O)N1CCC(S(=O)(=O)N2CCC(c3c[nH]c4ncccc34)CC2)C1 (racemic) [Compound 150, tert-butyl 3-[4-(1H-pyrrolo[2,3-b]pyridin-3-yl)piperidin-1-yl]sulfonylpyrr olidine-1-carboxylate]	10 to 100
CC(C)(C)OC(=O)NC1CC(S(=O)(=O)N2CCC(c3c[nH]c4ncccc34)CC2)C1 (stereo not drawn) [Compound 336, tert-butyl N-[3-[4-(1H-pyrrolo[2,3-b]pyridin-3-yl)piperidin-1-yl]sulfonylcyclobutyl] carbamate]	10 to 100
CC(C)NC(=S)N1CC(S(=O)(=O)N2CCC(c3c[nH]c4ncccc34)CC2)C1 [Compound 179, N-propan-2-yl-3-[4-(1H-pyrrolo[2,3-b]pyridin-3-yl)piperidin-1-yl]sulfonylaze-tidine-1-carbo-thioamide]	10 to 100
O=S(=O)(C1CN(c2nc(-c3ccccc3)cs2)C1)N1CCC(c2c[nH]c3ncccc23)CC1 [Compound 311, 4-phenyl-2-[3-[4-(1H-pyrrolo[2,3-b]pyridin-3-yl)piperidin-1-yl]sulfonylazetidin-1-yl]-1,3-thiazole]	10 to 100
CC(C)(C)OC(=O)N1CC(S(=O)(=O)N2CC=C(c3coc4cccnc34)CC2)C1 [Compound 231, tert-butyl 3-[(4-furo[3,2-b]pyridin-3-yl-3,6-dihydro-2H-pyridin-1-yl)sulfonyl]aze tidine-1-carboxylate]	100 to 1000
CC(C)(C)OC(=O)N1CCC(S(=O)(=O)N2CCC(c3coc4cccnc34)CC2)CC1 [Compound 132, tert-butyl 4-(4-furo[3,2-b]pyridin-3-ylpiperidin-1-yl)sulfonylpiper-idine-1-carboxylate]	100 to 1000
CS(=O)(=O)N1CC(S(=O)(=O)N2CCC(c3c[nH]c4ncccc34)CC2)C1 [Compound 91, 3-[1-(1-Methylsulfonylazetidin-3-yl)sulfonyl-4-piperidyl]-1H-pyrrolo[2,3-b]pyridine]	100 to 1000
CC(C)(C)OC(=O)N1CCC(S(=O)(=O)N2CC=C(c3ccnc4[nH]ccc34)CC2)CC1 [Compound 236, tert-butyl 4-[[4-(1H-pyrrolo[2,3-b]pyridin-4-yl)-3,6-dihydro-2H-pyridin-1-yl]sulfonyl] piperidine-1-carboxylate]	1000 to 10000
CN(C(=O)C1CC(S(=O)(=O)N2CCC(c3c[nH]c4ncccc34)CC2)C1)C(C)(C)C (stereo not drawn) [Compound 278, N-tert-butyl-N-methyl-3-[4-(1H-pyrrolo [2,3-b]pyridin-3-yl)piperidin-1-yl]sulfonylcycl obutane-1-carboxamide]	10 to 100
Cn1cc(C2CCN(S(=O)(=O)C3CN(C(=O)OC(C)(C)C)C3)CC2)c2cccnc21 [Compound 94, tert-Butyl 3-[[4-(1-methylpyrrolo[2,3-b]pyridin-3-yl)-1-piperidyl]sulfonyl]azetidine-1-carboxylate]	100 to 1000
Cc1cc(C)cc(OC(=O)N2CC(S(=O)(=O)N3CCC(c4c[nH]c5ncccc45)CC3)C2)c1 [Compound 208, (3,5-dimethylphenyl) 3-[4-(1H-pyrrolo[2,3-b]pyridin-3-yl)piperidin-1-yl]sulfonylaze-tidine-1-carboxylate]	100 to 1000
O=S(=O)(C1CN(c2ccccn2)C1)N1CCC(c2c[nH]c3cccnc23)CC1 [Compound 356, 3-[1-(1-pyridin-2-ylazetidin-3-yl)sulfonylpiper-idin-4-yl]-1H-pyrrolo[3,2-b]pyridine]	1000 to 10000
Cc1ccc(S(=O)(=O)n2ccc3c(C4CCN(S(=O)(=O)C5CCN(C(=O)OC(C)(C)C)CC5)CC4)ncnc32)cc1 [Compound 12, tert-butyl 4-[4-[7-(4-methylphenyl)-sulfonylpyrrolo[2,3-d]pyrimidin-4-yl]piperidin-1-yl]sulfonylpiper-idine-1-carboxylate]	100 to 1000
COc1ccc(COC(=O)N2CC(S(=O)(=O)N3CCC(c4c[nH]c5ncccc45)CC3)C2)cc1 [Compound 214, (4-methoxyphenyl) methyl 3-[4-(1H-pyrrolo[2,3-b]pyridin-3-yl)piperidin-1-yl]sulfonylaze-tidine-1-carboxylate]	10 to 100
O=C(OCc1ccccc1)N1CC(S(=O)(=O)N2CCC(c3c[nH]c4ncccc34)CC2)C1 [Compound 76, benzyl 3-[4-(1H-pyrrolo[2,3-b]pyridin-3-yl)piperidin-1-yl]sulfonylaze-tidine-1-carboxylate]	10 to 100
CC(C)N1CC(S(=O)(=O)N2CCC(c3c[nH]c4ncccc34)CC2)C1 [Compound 89, 3-[1-(1-propan-2-ylazetidin-3-yl)sulfonylpiper-idin-4-yl]-1H-pyrrolo[2,3-b]pyridine]	1000 to 10000
Cc1cc(C#N)ccc1N1CCN(S(=O)(=O)C2CN(C(=O)OC(C)(C)C)C2)CC1 [Compound 240, tert-butyl 3-[4-(4-cyano-2-methylphenyl)piperazin-1-yl]sulfonylaze-tidine-1-carboxylate]	1000 to 10000

Second part, the molecule after the results:

IC50 [nM]	Compound
10 to 100	O=C(Nc1cccnc1)N1CC(S(=O)(=O)N2CCC(c3c[nH]c4ncccc34)CC2)C1 [Compound 96, N-pyridin-3-yl-3-[4-(1H-pyrrolo[2,3-b]pyridin-3-yl)piperidin-1-yl]sulfonylaze-tidine-1-carboxamide]
1000 to 10000	CCOC(=O)N1CCC(S(=O)(=O)N2CCC(c3ccncc3)CC2)CC1 [Compound 103, ethyl 4-(4-pyridin-4-ylpiperidin-1-yl)sulfonylpiper-idine-1-carboxylate]
10 to 100	N#Cc1ccc(C2CCN(S(=O)(=O)C3CN(C(=O)NC4(C(F)(F)F)CC4)C3)CC2)cc1 [Compound 331, 3-[4-(4-cyanophenyl)piperidin-1-yl]sulfonyl-N-[1 (trifluoromethyl)cyclopropyl] azetidine-1-carboxamide]
1000 to 10000	COc1cccc(NC(=O)N2CC(S(=O)(=O)N3CCC(c4ccncc4)CC3)C2)c1 [Compound 281, N-(3-methoxyphenyl)-3-(4-pyridin-4-ylpiperidin-1-yl)sulfonylaze-tidine-1-carboxamide]
100 to 1000	CC(C)C(CO)NC(=O)N1CC(S(=O)(=O)N2CCC(c3ccncc3)CC2)C1 (stereo not drawn) [Compound 24, 3-(4-pyridin-4-ylpiperidin-1-yl)sulfonyl-N-[1-hydroxy-3-methylbutan-2-yl]azetidine-1-carboxamide]
100 to 1000	O=C(OCC1CCCCC1)N1CC(S(=O)(=O)N2CCC(c3ccncc3)CC2)C1 [Compound 266, cyclohexylmethyl 3-(4-pyridin-4-ylpiperidin-1-yl)sulfonylaze-tidine-1-carboxylate]
10 to 100	CC[C@H](C)OC(=O)N1CC(S(=O)(=O)N2CCC(c3c[nH]c4ncccc34)CC2)C1 [Compound 153, [(2S)-butan-2-yl] 3-[4-(1H-pyrrolo[2,3-b]pyridin-3-yl)piperidin-1-yl]sulfonylaze-tidine-1-carboxylate]
10 to 100	Cc1noc(C)c1CC(=O)N1CC(S(=O)(=O)N2CCC(c3ccc(Cl)cc3)CC2)C1 [Compound 386, 1-[3-[4-(4-chlorophenyl)piperidin-1-yl]sulfonylaze-tidin-1-yl]-2-(3,5-dimethyl-1,2-oxazol-4-yl)ethanone]
100 to 1000	Cc1noc(C)c1COC(=O)N1CC(S(=O)(=O)N2CCC(c3ccncc3)CC2)C1 [Compound 202, (3,5-dimethyl-1,2-oxazol-4-yl)methyl 3-(4-pyridin-4-ylpiperidin-1-yl)sulfonylaze-tidine-1-carboxylate]
100 to 1000	COc1cccc(NC(=O)N2CC(S(=O)(=O)N3CCC(c4c[nH]c5ncccc45)CC3)C2)c1 [Compound 275, N-(3-methoxyphenyl)-3-[4-(1H-pyrrolo[2,3-b]pyridin-3-yl)piperidin-1-yl]sulfonylaze-tidine-1-carboxamide]
1000 to 10000	Cc1noc(C)c1CNC(=O)N1CC(S(=O)(=O)N2CCC(c3ccncc3)CC2)C1 [Compound 203, N-[(3,5-dimethyl-1,2-oxazol-4-yl)methyl]-3-(4-pyridin-4-ylpiperidin-1-yl)sulfonylaze-tidine-1-carboxamide]
1000 to 10000	O=C(OC1CCOCC1)N1CC(S(=O)(=O)N2CCC(c3ccncc3)CC2)C1 [Compound 29, oxan-4-yl 3-(4-pyridin-4-ylpiperidin-1-yl)sulfonylaze-tidine-1-carboxylate]
1000 to 10000	Cn1cncc1C1CCN(S(=O)(=O)C2CN(C(=O)OC(C)(C)C)C2)CC1 [Compound 102, tert-butyl 3-[4-(3-methylimidazol-4-yl)piperidin-1-yl]sulfonylaze-tidine-1-carboxylate]
100 to 1000	O=C(N1CCCC1)N1CC(S(=O)(=O)N2CCC(c3c[nH]c4ncccc34)CC2)C1 [Compound 87, pyrrolidin-1-yl-[3-[4-(1H-pyrrolo[2,3-b]pyridin-3-yl)piperidin-1-yl]sulfonylaze-tidin-1-yl]methanone]
100 to 1000	Cc1ccc(NC(=O)N2CC(S(=O)(=O)N3CCC(c4c[nH]c5ncccc45)CC3)C2)cc1 [Compound 276, N-(4-methylphenyl)-3-[4-(1H-pyrrolo[2,3-b]pyridin-3-yl)piperidin-1-yl]sulfonylaze-tidine-1-carboxamide]
10 to 100	O=C(NC1(C(F)(F)F)CC1)N1CC(S(=O)(=O)N2CCC(c3coc4cccnc34)CC2)C1 [Compound 139, 3-(4-furo[3,2-b]pyridin-3-ylpiperidin-1-yl)sulfonyl-N-[1-(trifluoromethyl)cyclopropyl] azetidine-1-carboxamide]
100 to 1000	COC(=O)N1CC(S(=O)(=O)N2CCC(c3coc4cccnc34)CC2)C1 [Compound 126, methyl 3-(4-furo [3,2-b]pyridin-3-ylpiperidin-1-yl)sulfonylaze-tidine-1-carboxylate]
10 to 100	O=C(Nc1cc(F)ccc1Cl)N1CC(S(=O)(=O)N2CCC(c3c[nH]c4ncccc34)CC2)C1 [Compound 385, N-(2-chloro-5-fluorophenyl)-3-[4-(1H-pyrrolo[2,3-b]pyridin-3-yl)piperidin-1-yl]sulfonylaze-tidine-1-carboxamide]
10 to 100	Cc1cc(F)ccc1NC(=O)N1CC(S(=O)(=O)N2CCC(c3coc4cccnc34)CC2)C1 [Compound 392, N-(4-fluoro-2-methylphenyl)-3-(4-furo[3,2-b]pyridin-3-ylpiperidin-1-yl)sulfonylaze-tidine-1-carboxamide]
